Measured values: patent publication US9302999B2, “Substituted triazoles as herbicides” (E. I. DU PONT DE NEMOURS AND COMPANY, priority 2012, dated 2016)

Key:
Type in all cases: in vivo
[1] = system: foxtail, giant (giant foxtail, Setaria faberii); experiment: Test A pre-/postemergence: foxtail, giant
Summary of the method: (§1)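 Each species received preemergence soil-directed spraying and, at the same time, postemergence treatment of seedlings 2–10 cm tall. Formulation: non-phytotoxic solvent mixture including surfactant. Response assessed visually about ten days on, relative to untreated controls, 0–100 scale.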

[2] = system: morningglory (Ipomoea spp.); experiment: Test A pre-/postemergence: morningglory; settings: for Morningglory plant response rating: visual rating on 0 to 100 scale (0 no effect, 100 complete control), approximately ten days
Summary of the method: as §1

[3] = system: corn (Zea mays); experiment: Test A pre-/postemergence: corn
Summary of the method: as §1

[4] = system: sedge, umbrella (small-flower umbrella sedge Cyperus difformis); experiment: Test B flooded paddy: sedge, umbrella; settings: Flood; 250 g ai/ha; applied to paddy water at 2-leaf stage; visually evaluated after 13 to 15 days
Summary of the method: (§2)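 Flooded-pot test: compound dosed into 3 cm of standing water above soil when plants had two leaves. Visual control ratings (0–100) versus untreated plants after 13–15 d.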

[5] = system: ducksalad (Heteranthera limosa); experiment: Test B flooded paddy: ducksalad; settings: Flood; 250 g ai/ha; applied to paddy water at 2-leaf stage; visually evaluated after 13 to 15 days
Summary of the method: as §2

[6] = system: ryegrass, Italian (Italian ryegrass, Lolium multiflorum); experiment: Test C pre-/postemergence: ryegrass, Italian
Summary of the method: (§3)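 Preemergence on seeds in loam/sand, postemergence on 2–18 cm (1–4-leaf) plants in peat-based medium; compounds in non-phytotoxic solvent with surfactant. After 13–15 days in greenhouse, visual rating versus controls, 0 (no effect) to 100 (complete control).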

[7] = system: johnsongrass (Sorghum halepense); experiment: Test C pre-/postemergence: johnsongrass
Summary of the method: as §3

[8] = system: kochia (Kochia scoparia); experiment: Test C pre-/postemergence: kochia; settings: Postemergence
Summary of the method: as §3

[9] = system: ragweed (common ragweed, Ambrosia elation); experiment: Test C pre-/postemergence: ragweed
Summary of the method: as §3

[10] = system: soybean (Glycine max); experiment: Test C pre-/postemergence: soybean
Summary of the method: as §3

[11] = system: chickweed (common chickweed, Stellaria media); experiment: Test C postemergence: chickweed
Summary of the method: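 Crop and weed plants were grown in peat-vermiculite medium and treated postemergence at the 1- to 4-leaf stage (2-18 cm tall). After 13-15 days in a greenhouse, each species was rated visually against untreated controls on a 0-100 scale (0 no effect, 100 complete control).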

[12] = Postemergence, 125 g ai/ha, 0 to 100 scale, 0 is no effect, 100 is complete control
[13] = Postemergence, 500 g ai/ha, visual rating on 0 to 100 scale (0 no effect, 100 complete control), approximately ten days
[14] = Preemergence, 125 g ai/ha, 0 to 100 scale where 0 is no effect and 100 is complete control
[15] = Preemergence, 500 g ai/ha, 0 to 100 scale (0 no effect, 100 complete control)
[16] = Postemergence, 31 g ai/ha, scale 0 to 100 (0 no effect, 100 complete control)
[17] = Postemergence, 62 g ai/ha, scale 0 to 100 (0 no effect, 100 complete control)
[18] = Postemergence, 125 g ai/ha, scale 0 to 100, 0 no effect, 100 complete control
[19] = Postemergence, 250 g ai/ha, scale 0 to 100
[20] = 31 g ai/ha, scale 0 to 100 (0 no effect, 100 complete control)
[21] = 62 g ai/ha, scale 0 to 100 (0 no effect, 100 complete control)
[22] = 125 g ai/ha, scale 0 to 100, 0 no effect, 100 complete control
[23] = Preemergence, 31 g ai/ha, scale of 0 to 100, 0 is no effect, 100 is complete control
[24] = Preemergence, 62 g ai/ha, scale of 0 to 100, 0 is no effect, 100 is complete control
[25] = Preemergence, 125 g ai/ha, scale 0 to 100, 0 no effect, 100 complete control
[26] = Preemergence, 250 g ai/ha, scale 0 to 100, 0 no effect, 100 complete control

With Cc1nn(-c2ccnc(Cl)c2)nc1Cc1ccnc(C(F)(F)F)c1 [Compound 141] the “Foxtail, Giant plant response rating” value [1, 12] was 90, the “Foxtail, Giant plant response rating” value [1, 13] was 90 and the “Plant response rating, Foxtail, Giant” value [1, 14] was 100. The “Plant response rating, Foxtail, Giant” value [1, 15] was 100, the “Plant response rating, Morningglory” value [2, 12] was 80 and the “Morningglory plant response rating” value ([2]; Postemergence, 500 g ai/ha) was 90. The “Plant response rating, Morningglory” value [2, 14] was 30, the “Plant response rating, Morningglory” value [2, 15] was 60 and the “Corn plant response rating” value [3, 12] was 30. For the same molecule, the “Corn plant response rating” value [3, 13] was 50, the “Plant response rating, Corn” value [3, 14] was 0 and the “Plant response rating, Corn” value [3, 15] was 30. The “Plant response rating, Sedge, Umbrella (0 to 100 scale, 0 is no effect, 100 is complete control)” value [4] was 85, the “Plant response rating, Ducksalad (0 to 100 scale, 0 is no effect, 100 is complete control)” value [5] was 85 and the “Plant response rating, Ryegrass, Italian” value [6, 16] was 15. For the same molecule, the “Plant response rating, Ryegrass, Italian” value [6, 17] was 30, the “Plant response rating, Ryegrass, Italian” value [6, 18] was 50 and the “Plant response rating, Ryegrass, Italian” value [6, 19] was 70. For the same molecule, the “Plant response rating, Johnsongrass” value [7, 16] was 10, the “Plant response rating, Johnsongrass” value [7, 17] was 10 and the “Plant response rating, Johnsongrass” value [7, 18] was 15. The “Plant response rating, Johnsongrass” value [7, 19] was 15, the “Plant response rating, Kochia” value [8, 20] was 85 and the “Plant response rating, Kochia” value [8, 21] was 90. The “Plant response rating, Kochia” value [8, 22] was 90, the “Plant response rating, Kochia” value ([8]; 250 g ai/ha, scale 0 to 100) was 90 and the “Plant response rating, Ragweed” value [9, 16] was 60. The “Plant response rating, Ragweed” value [9, 17] was 70, the “Plant response rating, Ragweed” value [9, 19] was 85 and the “Plant response rating, Soybean” value [10, 16] was 40. For the same molecule, the “Plant response rating, Soybean” value [10, 17] was 55, the “Plant response rating, Soybean” value [10, 18] was 55 and the “Plant response rating, Soybean” value [10, 19] was 65. For the same molecule, the “Plant response rating, Chickweed” value [11, 20] was 80, the “Plant response rating, Chickweed” value [11, 21] was 90 and the “Plant response rating, Chickweed” value [11, 22] was 98. The “Plant response rating, Chickweed” value ([11]; 250 g ai/ha, scale 0 to 100) was 100.
Cc1nn(-c2ccc(F)c(C(F)(F)F)c2)nc1Cc1ccnc(C(F)(F)F)c1 [Compound 156] was tested, and the “Plant response rating, Foxtail, Giant” value [1, 12] was 90, the “Foxtail, Giant plant response rating” value [1, 13] was 100 and the “Plant response rating, Foxtail, Giant” value [1, 14] was 100. The “Plant response rating, Foxtail, Giant” value [1, 15] was 100, the “Plant response rating, Morningglory” value [2, 12] was 90 and the “Morningglory plant response rating” value ([2]; Postemergence, 500 g ai/ha) was 90. For the same molecule, the “Plant response rating, Morningglory” value [2, 14] was 80, the “Plant response rating, Morningglory” value [2, 15] was 90 and the “Plant response rating, Corn” value [3, 12] was 40. The “Corn plant response rating” value [3, 13] was 70, the “Plant response rating, Corn” value [3, 14] was 40 and the “Plant response rating, Corn” value [3, 15] was 70. The “Plant response rating, Sedge, Umbrella (0 to 100 scale, 0 is no effect, 100 is complete control)” value [4] was 85, the “Plant response rating, Ducksalad (0 to 100 scale, 0 is no effect, 100 is complete control)” value [5] was 90 and the “Plant response rating, Ryegrass, Italian” value [6, 16] was 15. For the same molecule, the “Plant response rating, Ryegrass, Italian” value [6, 17] was 35, the “Plant response rating, Ryegrass, Italian” value [6, 18] was 35 and the “Plant response rating, Ryegrass, Italian” value [6, 19] was 70. The “Plant response rating, Ryegrass, Italian” value [6, 23] was 45, the “Plant response rating, Ryegrass, Italian” value [6, 24] was 80 and the “Plant response rating, Ryegrass, Italian” value [6, 25] was 90. For the same molecule, the “Plant response rating, Ryegrass, Italian” value [6, 26] was 90, the “Plant response rating, Johnsongrass” value [7, 16] was 45 and the “Plant response rating, Johnsongrass” value [7, 17] was 50. The “Plant response rating, Johnsongrass” value [7, 18] was 65, the “Plant response rating, Johnsongrass” value [7, 19] was 85 and the “Plant response rating, Johnsongrass” value [7, 23] was 75. For the same molecule, the “Plant response rating, Johnsongrass” value [7, 24] was 90, the “Plant response rating, Johnsongrass” value [7, 25] was 90 and the “Plant response rating, Johnsongrass” value [7, 26] was 95. For the same molecule, the “Plant response rating, Kochia” value [8, 20] was 90, the “Plant response rating, Kochia” value [8, 21] was 90 and the “Plant response rating, Kochia” value [8, 22] was 90. For the same molecule, the “Plant response rating, Kochia” value ([8]; 250 g ai/ha, scale 0 to 100) was 95, the “Plant response rating, Ragweed” value [9, 16] was 75 and the “Plant response rating, Ragweed” value [9, 17] was 75. The “Plant response rating, Ragweed” value [9, 18] was 75, the “Plant response rating, Ragweed” value [9, 19] was 80 and the “Plant response rating, Ragweed” value [9, 23] was 5. For the same molecule, the “Plant response rating, Ragweed” value [9, 24] was 10, the “Plant response rating, Ragweed” value [9, 25] was 30 and the “Plant response rating, Ragweed” value [9, 26] was 60. For the same molecule, the “Plant response rating, Soybean” value [10, 16] was 55, the “Plant response rating, Soybean” value [10, 17] was 80 and the “Plant response rating, Soybean” value [10, 18] was 95. For the same molecule, the “Plant response rating, Soybean” value [10, 19] was 95, the “Plant response rating, Soybean” value [10, 23] was 5 and the “Plant response rating, Soybean” value [10, 24] was 10. The “Plant response rating, Soybean” value [10, 25] was 25, the “Plant response rating, Soybean” value [10, 26] was 25 and the “Plant response rating, Chickweed” value [11, 20] was 95. For the same molecule, the “Plant response rating, Chickweed” value [11, 21] was 95, the “Plant response rating, Chickweed” value [11, 22] was 95 and the “Plant response rating, Chickweed” value ([11]; 250 g ai/ha, scale 0 to 100) was 98.
